US20230167094A1, “H4 ANTAGONIST COMPOUNDS” (Heptares Therapeutics Limited, priority 2020, published 2023)

Assays:
[1] = target: T1, human H4 receptor (Homo sapiens, UniProt Q9H3N8); assay: H4 Antagonist Functional Dynamic Mass Redistribution Assay; type: cell-based; settings: HEKf cells expressing human H4 receptor; antagonist mode vs histamine EC80; pKb by Cheng-Prusoff; read-out: Human H4 DMR fpKb (converted)
T1 construct: expressed in transfected cells; host or cells: HEKf cells infected with baculovirus
Protocol: H4 Antagonist Functional Dynamic Mass Redistribution Assay
HEKf cells were infected using baculovirus expressing the human H4 receptor, plated into fibronectin-coated EPIC plates at a density of 10,000 cells/well and incubated overnight at 37° C. The medium on cells was changed to […] HBSS with 20 mM HEPES per well and 30 nL DMSO were added per well by LabCyte ECHO acoustic dispensing. Following 2 h equilibration at room temperature, 30 nL of H4 ligands prepared in DMSO were stamped by LabCyte ECHO acoustic dispensing into seeded EPIC plates and cellular dynamic mass redistribution was monitored using a Corning EPIC plate reader. Following 45 min measurement, 30 nL/well of histamine EC80 was added and monitored to obtain antagonist assay data. Maximum baseline-corrected responses in pm were used to generate concentration response curves. EC50 values were generated using a 4-parameter logistical fit equation to quantify agonist potencies. Functional antagonist affinity values were generated using the Cheng-Prusoff equation to calculate a pKb value using the antagonist assay data.

[2] = target: hERG (Homo sapiens, UniProt Q12809); assay: hERG assay (QPatch automated patch clamp, CHO cells); type: cell-based; settings: CHO cells stably expressing hERG; 1, 3, 10 and 30 μM; tail current; room temperature; read-out: hERG pIC50 (converted)
Chain of hERG (Q12809 whole entry): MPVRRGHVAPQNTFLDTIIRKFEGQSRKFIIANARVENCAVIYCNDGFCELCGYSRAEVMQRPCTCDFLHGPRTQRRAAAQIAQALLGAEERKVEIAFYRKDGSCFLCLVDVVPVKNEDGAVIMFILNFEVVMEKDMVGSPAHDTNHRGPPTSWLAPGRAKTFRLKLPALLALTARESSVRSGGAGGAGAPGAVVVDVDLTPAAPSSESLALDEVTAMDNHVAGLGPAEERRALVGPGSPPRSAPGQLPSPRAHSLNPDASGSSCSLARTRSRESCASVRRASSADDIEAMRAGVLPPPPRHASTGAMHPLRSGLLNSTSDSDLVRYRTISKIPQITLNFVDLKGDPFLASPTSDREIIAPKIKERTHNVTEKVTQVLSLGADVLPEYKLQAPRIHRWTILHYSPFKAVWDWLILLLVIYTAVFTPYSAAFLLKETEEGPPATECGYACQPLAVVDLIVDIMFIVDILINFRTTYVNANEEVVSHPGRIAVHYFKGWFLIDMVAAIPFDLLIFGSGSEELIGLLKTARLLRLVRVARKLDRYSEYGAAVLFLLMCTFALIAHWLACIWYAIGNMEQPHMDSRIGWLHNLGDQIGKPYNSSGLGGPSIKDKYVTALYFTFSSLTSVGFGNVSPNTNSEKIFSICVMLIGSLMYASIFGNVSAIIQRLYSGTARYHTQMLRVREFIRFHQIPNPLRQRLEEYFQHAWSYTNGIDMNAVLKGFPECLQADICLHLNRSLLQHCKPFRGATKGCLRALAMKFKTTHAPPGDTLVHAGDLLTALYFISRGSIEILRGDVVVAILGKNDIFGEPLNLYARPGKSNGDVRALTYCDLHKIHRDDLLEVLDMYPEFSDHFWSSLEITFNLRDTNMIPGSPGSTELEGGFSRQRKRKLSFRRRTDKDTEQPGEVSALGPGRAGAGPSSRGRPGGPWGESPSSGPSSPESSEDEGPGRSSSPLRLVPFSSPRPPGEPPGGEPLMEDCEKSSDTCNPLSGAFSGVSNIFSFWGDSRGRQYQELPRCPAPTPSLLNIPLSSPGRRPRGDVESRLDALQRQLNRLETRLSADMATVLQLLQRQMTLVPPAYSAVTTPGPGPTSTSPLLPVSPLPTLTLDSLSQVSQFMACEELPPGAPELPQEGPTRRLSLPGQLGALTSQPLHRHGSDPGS
Protocol: All experiments were performed on the QPatch automated patch clamp platform.
Series resistance (4-15 MΩ) was compensated by >80%.

Row | Kb [1] [nM] | SMILES | IC50 [2] [nM]
1 | 7.94 | CNC1CN(c2cc(-c3cn(C)nc3Br)nc(N)n2)C1 [Example 31, 4-(3-Bromo-1-methyl-1H-pyrazol-4-yl)-6-(3-(methylamino)azetidin-1-yl)pyrimidin-2-amine] | > 31600
2 | 126 | CNC1CN(c2cc(-c3cc(C)nn3C)nc(N)n2)C1 [Example 24, 4-(1,3-Dimethyl-1H-pyrazol-5-yl)-6-(3-(methylamino)azetidin-1-yl)pyrimidin-2-amine] | > 100000
3 | 50.1 | CNC1CN(c2cc(-c3cn(CC(F)(F)F)nc3C)nc(N)n2)C1 [Example 19, 4-(3-Methyl-1-(2,2,2-trifluoroethyl)-1H-pyrazol-4-yl)-6-(3-(methylamino)azetidin-1-yl)pyrimidin-2-amine] | > 31600
